Assay results: ChEMBL document CHEMBL3396982, “Design and synthesis of a novel series of [1-(4-hydroxy-benzyl)-1H-indol-5-yloxy]-acetic acid compounds as potent, selective, thyroid hormone receptor β agonists” (Bioorg Med Chem Lett, 2015)

Key:
[1] = target: T1, Thyroid hormone receptor alpha (Homo sapiens, UniProt P10827); experiment: Displacement of [125I]-L-3,5,3'-triiodothyronine from human TRalpha expressed in human Hela cell lysate measured after overnight incubation by competition binding assays; format: cell-free
T1 sequence (P10827 whole entry): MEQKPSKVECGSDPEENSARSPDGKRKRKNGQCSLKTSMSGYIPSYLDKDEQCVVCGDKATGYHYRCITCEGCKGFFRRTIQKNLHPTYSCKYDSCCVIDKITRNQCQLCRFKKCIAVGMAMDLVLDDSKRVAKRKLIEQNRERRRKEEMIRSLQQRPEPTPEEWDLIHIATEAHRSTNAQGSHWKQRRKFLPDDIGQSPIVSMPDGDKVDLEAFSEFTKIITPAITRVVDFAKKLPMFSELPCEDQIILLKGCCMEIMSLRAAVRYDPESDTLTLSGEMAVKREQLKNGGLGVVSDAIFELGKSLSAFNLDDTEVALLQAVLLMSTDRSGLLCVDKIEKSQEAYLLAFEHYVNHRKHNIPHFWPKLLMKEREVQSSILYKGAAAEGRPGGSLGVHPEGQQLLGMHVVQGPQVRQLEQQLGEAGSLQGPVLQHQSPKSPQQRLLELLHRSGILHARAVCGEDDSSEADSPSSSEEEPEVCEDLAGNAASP

[2] = target: T2, Thyroid hormone receptor beta (Homo sapiens, UniProt P10828); experiment: Displacement of [125I]-L-3,5,3'-triiodothyronine from human TRbeta expressed in human Hela cell lysate measured after overnight incubation by competition binding assays; format: cell-free
T2 sequence (P10828 whole entry): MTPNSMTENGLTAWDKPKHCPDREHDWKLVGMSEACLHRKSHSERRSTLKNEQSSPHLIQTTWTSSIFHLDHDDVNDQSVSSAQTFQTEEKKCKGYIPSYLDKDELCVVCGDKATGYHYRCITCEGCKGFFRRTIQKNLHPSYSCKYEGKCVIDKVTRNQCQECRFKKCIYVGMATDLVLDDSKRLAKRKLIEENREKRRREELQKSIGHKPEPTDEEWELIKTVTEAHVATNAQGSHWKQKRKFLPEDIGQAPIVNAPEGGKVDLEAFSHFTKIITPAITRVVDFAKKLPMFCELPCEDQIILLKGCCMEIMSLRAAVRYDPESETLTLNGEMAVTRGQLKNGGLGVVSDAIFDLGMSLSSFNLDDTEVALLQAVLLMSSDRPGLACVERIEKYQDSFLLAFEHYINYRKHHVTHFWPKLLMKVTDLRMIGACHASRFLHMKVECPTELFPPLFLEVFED

[3] = target: T1, Thyroid hormone receptor alpha; experiment: Agonist activity at TRalpha (unknown origin) expressed in human HuH7 cells after 24 hrs by Gal4 CTF cell-based assay; design: species or system Huh-7
[4] = target: T2, Thyroid hormone receptor beta; experiment: Agonist activity at TRbeta (unknown origin) expressed in human HuH7 cells after 24 hrs by Gal4 CTF cell-based assay; design: species or system Huh-7
Rattus norvegicus [5] = experiment: Increase in HDL level in fructose-fed Sprague-Dawley rat model of dyslipidemia at 0.3 mg/kg, po qd through oral gavage by size exclusion chromatography relative to vehicle-treated control; format: functional
Rattus norvegicus [6] = experiment: Toxicity in fructose-fed Sprague-Dawley rat model of dyslipidemia assessed as effect on food intake at 0.1 to 10 mg/kg, po qd through oral gavage; format: organism-based; design: dose 0.1-10 mg/kg, route oral; conditions: in vivo
Rattus norvegicus [7] = experiment: Decrease in triglyceride level in fructose-fed Sprague-Dawley rat model of dyslipidemia at 0.3 mg/kg, po qd through oral gavage by size exclusion chromatography (Rvb =296 +/- 20 mg/dL); format: functional
Rattus norvegicus [8] = experiment: Decrease in triglyceride level in fructose-fed Sprague-Dawley rat model of dyslipidemia at 3 mg/kg, po qd through oral gavage by size exclusion chromatography (Rvb =296 +/- 20 mg/dL); format: functional
Rattus norvegicus [9] = experiment: Decrease in triglyceride level in fructose-fed Sprague-Dawley rat model of dyslipidemia at 1 mg/kg, po qd through oral gavage by size exclusion chromatography (Rvb =296 +/- 20 mg/dL); format: functional
Rattus norvegicus [10] = experiment: Decrease in triglyceride level in fructose-fed Sprague-Dawley rat model of dyslipidemia at 10 mg/kg, po qd through oral gavage by size exclusion chromatography (Rvb =296 +/- 20 mg/dL); format: functional
Rattus norvegicus [11] = experiment: Increase in HDL level in fructose-fed Sprague-Dawley rat model of dyslipidemia at 1 mg/kg, po qd through oral gavage by size exclusion chromatography relative to vehicle-treated control; format: functional
Rattus norvegicus [12] = experiment: Decrease in triglyceride level in fructose-fed Sprague-Dawley rat model of dyslipidemia at 0.1 mg/kg, po qd through oral gavage by size exclusion chromatography (Rvb =296 +/- 20 mg/dL); format: functional
Rattus norvegicus [13] = experiment: Increase in HDL level in fructose-fed Sprague-Dawley rat model of dyslipidemia at 3 mg/kg, po qd through oral gavage by size exclusion chromatography relative to vehicle-treated control; format: functional
Rattus norvegicus [14] = experiment: Increase in HDL level in fructose-fed Sprague-Dawley rat model of dyslipidemia at 10 mg/kg, po qd through oral gavage by size exclusion chromatography relative to vehicle-treated control; format: functional
Rattus norvegicus [15] = experiment: Increase in HDL level in fructose-fed Sprague-Dawley rat model of dyslipidemia at 0.1 mg/kg, po qd through oral gavage by size exclusion chromatography relative to vehicle-treated control; format: functional

| Ki [1] [nM] | Ki [2] [nM] | Structure (SMILES) | also measured |
| --- | --- | --- | --- |
| 2.77 | 0.18 | Cc1cn(Cc2ccc(O)c(C(C)C)c2)c2c(C)cc(OCC(=O)O)cc12 | – |
| 2.05 | 0.14 | Cc1cc(OCC(=O)O)cc2cc(C)n(Cc3ccc(O)c(C(C)C)c3)c12 | – |
| 1.09 | 0.26 | Cc1cc(OCC(=O)O)cc2ccn(Cc3ccc(O)c(C(C)C)c3)c12 | – |
| 0.51 | 0.09 | Cc1cn(Cc2ccc(O)c(C(C)C)c2)c2c(Cl)cc(OCC(=O)O)cc12 | – |
| 7.74 | 0.38 | Cc1cn(Cc2ccc(O)c(C(C)C)c2)c2ccc(OCC(=O)O)cc12 | Activity (Rattus norvegicus [5]): 39%; Activity (Rattus norvegicus [6]): Non-toxic; Activity (Rattus norvegicus [7]): 214 mg/dL; Activity (Rattus norvegicus [8]): 149 mg/dL; Activity (Rattus norvegicus [9]): 177 mg/dL; Activity (Rattus norvegicus [10]): 106 mg/dL; Activity (Rattus norvegicus [11]): 55%; Activity (Rattus norvegicus [12]): 204 mg/dL; Activity (Rattus norvegicus [13]): 42%; Activity (Rattus norvegicus [14]): 35%; Activity (Rattus norvegicus [15]): 22% |

The next lines start with the compound.

| Structure (SMILES) | Ki [1] [nM] | Ki [2] [nM] | also measured |
| --- | --- | --- | --- |
| Cc1cn(Cc2ccc(O)c(-c3ccccc3)c2)c2ccc(OCC(=O)O)cc12 | 89.9 | 3.14 | – |
| CC(C)c1cc(Cn2ccc3cc(OCC(=O)O)ccc32)ccc1O | 13.5 | 1.04 | – |
| Cc1cn(Cc2ccc(O)c(Cc3ccccc3)c2)c2ccc(OCC(=O)O)cc12 | 36.5 | 0.54 | EC50 [3]: 2470 nM; EC50 [4]: 406 nM |
| Cc1cn(Cc2ccc(O)c(C(C)(C)C)c2)c2ccc(OCC(=O)O)cc12 | 9.98 | 0.3 | – |
| Cc1cc2cc(OCC(=O)O)ccc2n1Cc1ccc(O)c(C(C)C)c1 | 16.3 | 1.12 | – |
| Cc1cc2cc(OCC(=O)O)cc(Cl)c2n1Cc1ccc(O)c(C(C)C)c1 | 0.38 | 0.04 | – |
| Cc1cn(Cc2ccc(O)c(C3CCCC3)c2)c2ccc(OCC(=O)O)cc12 | 32.3 | 0.64 | – |
| CC(C)c1cc(Cn2ccc3cc(OCC(=O)O)cc(Cl)c32)ccc1O | 0.35 | 0.07 | – |
| Cc1cn(Cc2ccc(O)c(CC3CCCCC3)c2)c2ccc(OCC(=O)O)cc12 | 46.6 | 1.11 | – |
| Cc1cn(Cc2ccc(O)c(C3CCCCC3)c2)c2ccc(OCC(=O)O)cc12 | 200 | 8.04 | – |
